Results from ChEMBL document CHEMBL2046376, “Synthesis and antimicrobial activity of amide derivatives of polyether antibiotic-salinomycin” (2012).
Active and inactive are the calls of the source.

Columns and labels:
Assay type in all cases: functional
[1] = tested on: Escherichia coli; test: Antibacterial activity against Escherichia coli NCTC 8196 after 18 hrs by twofold serial agar dilution technique
[2] = tested on: Staphylococcus aureus; test: Antibacterial activity against Staphylococcus aureus ATCC 6538 after 18 hrs by twofold serial agar dilution technique; details: ATCC 6538, 18 h
[3] = tested on: Staphylococcus epidermidis; test: Antibacterial activity against Staphylococcus epidermidis ATCC 35984 assessed as zone of inhibition at 400 ug/disc after 18 hrs by disc diffusion method; details: ATCC 35984, 18 h, read-out: DIZ
[4] = tested on: Staphylococcus epidermidis; test: Antibacterial activity against Staphylococcus epidermidis ATCC 12228 after 18 hrs by twofold serial agar dilution technique; details: ATCC 12228, 18 h
[5] = tested on: Staphylococcus aureus; test: Antibacterial activity against hospital-acquired methicillin-sensitive Staphylococcus aureus 443/11 after 18 hrs by twofold serial agar dilution technique; details: 443/11, 18 h
[6] = tested on: Bordetella bronchiseptica; test: Antibacterial activity against Bordetella bronchiseptica ATCC 4617 after 18 hrs by twofold serial agar dilution technique
[7] = tested on: Staphylococcus aureus; test: Antibacterial activity against hospital-acquired methicillin-resistant Staphylococcus aureus 401/10 after 18 hrs by twofold serial agar dilution technique; details: 401/10, 18 h
[8] = tested on: Staphylococcus aureus; test: Antibacterial activity against hospital-acquired methicillin-sensitive Staphylococcus aureus 440/11 after 18 hrs by twofold serial agar dilution technique; details: 440/11, 18 h
[9] = tested on: Staphylococcus aureus; test: Antibacterial activity against hospital-acquired methicillin-sensitive Staphylococcus aureus 441/11 after 18 hrs by twofold serial agar dilution technique; details: 441/11, 18 h
[10] = tested on: Staphylococcus aureus; test: Antibacterial activity against Staphylococcus aureus NCTC 4163 after 18 hrs by twofold serial agar dilution technique; details: NCTC 4163, 18 h
[11] = tested on: Staphylococcus aureus; test: Antibacterial activity against hospital-acquired methicillin-resistant Staphylococcus aureus 450/11 after 18 hrs by twofold serial agar dilution technique; details: 450/11, 18 h
[12] = tested on: Staphylococcus aureus; test: Antibacterial activity against hospital-acquired methicillin-resistant Staphylococcus aureus 394/10 after 18 hrs by twofold serial agar dilution technique; details: 394/10, 18 h
[13] = tested on: Staphylococcus aureus; test: Antibacterial activity against hospital-acquired methicillin-sensitive Staphylococcus aureus 447/11 after 18 hrs by twofold serial agar dilution technique; details: 447/11, 18 h
[14] = tested on: Staphylococcus aureus; test: Antibacterial activity against hospital-acquired methicillin-sensitive Staphylococcus aureus 445/11 after 18 hrs by twofold serial agar dilution technique; details: 445/11, 18 h
[15] = tested on: Staphylococcus aureus; test: Antibacterial activity against Staphylococcus aureus ATCC 25923 after 18 hrs by twofold serial agar dilution technique; details: ATCC 25923, 18 h
[16] = tested on: Staphylococcus aureus; test: Antibacterial activity against hospital-acquired methicillin-resistant Staphylococcus aureus 481/11 after 18 hrs by twofold serial agar dilution technique; details: 481/11, 18 h
[17] = tested on: Candida albicans; test: Antifungal activity against Candida albicans ATCC 10231 after 24 hrs by twofold serial agar dilution technique
[18] = tested on: Staphylococcus aureus; test: Antibacterial activity against Staphylococcus aureus ATCC 29213 after 18 hrs by twofold serial agar dilution technique; details: ATCC 29213, 18 h
[19] = tested on: Staphylococcus aureus; test: Antibacterial activity against hospital-acquired methicillin-resistant Staphylococcus aureus 452/11 after 18 hrs by twofold serial agar dilution technique; details: 452/11, 18 h
[20] = tested on: Staphylococcus epidermidis; test: Antibacterial activity against Staphylococcus epidermidis ATCC 12228 assessed as zone of inhibition at 400 ug/disc after 18 hrs by disc diffusion method; details: ATCC 12228, 18 h, read-out: DIZ
[21] = tested on: Staphylococcus aureus; test: Antibacterial activity against hospital-acquired methicillin-resistant Staphylococcus aureus 399/10 after 18 hrs by twofold serial agar dilution technique; details: 399/10, 18 h
[22] = tested on: Staphylococcus aureus; test: Antibacterial activity against hospital-acquired methicillin-sensitive Staphylococcus aureus 446/11 after 18 hrs by twofold serial agar dilution technique; details: 446/11, 18 h
[23] = tested on: Proteus vulgaris; test: Antibacterial activity against Proteus vulgaris NCTC 4635 after 18 hrs by twofold serial agar dilution technique
[24] = tested on: Staphylococcus aureus; test: Antibacterial activity against hospital-acquired methicillin-sensitive Staphylococcus aureus 444/11 after 18 hrs by twofold serial agar dilution technique; details: 444/11, 18 h
[25] = tested on: Staphylococcus aureus; test: Antibacterial activity against Staphylococcus aureus NCTC 4163 assessed as zone of inhibition at 400 ug/disc after 18 hrs by disc diffusion method; details: NCTC 4163, 18 h, read-out: DIZ
[26] = tested on: Pseudomonas aeruginosa; test: Antibacterial activity against Pseudomonas aeruginosa ATCC 27853 after 18 hrs by twofold serial agar dilution technique
[27] = tested on: Staphylococcus epidermidis; test: Antibacterial activity against Staphylococcus epidermidis ATCC 35984 after 18 hrs by twofold serial agar dilution technique; details: ATCC 35984, 18 h
[28] = tested on: Staphylococcus aureus; test: Antibacterial activity against hospital-acquired methicillin-resistant Staphylococcus aureus 400/10 after 18 hrs by twofold serial agar dilution technique; details: 400/10, 18 h
[29] = tested on: Staphylococcus aureus; test: Antibacterial activity against Staphylococcus aureus ATCC 6538 assessed as zone of inhibition at 400 ug/disc after 18 hrs by disc diffusion method; details: ATCC 6538, 18 h, read-out: DIZ
[30] = tested on: Candida parapsilosis; test: Antifungal activity against Candida parapsilosis ATCC 22019 after 24 hrs by twofold serial agar dilution technique
[31] = tested on: Staphylococcus aureus; test: Antibacterial activity against hospital-acquired methicillin-resistant Staphylococcus aureus 451/11 after 18 hrs by twofold serial agar dilution technique; details: 451/11, 18 h
[32] = tested on: Escherichia coli; test: Antibacterial activity against Escherichia coli ATCC 25922 after 18 hrs by twofold serial agar dilution technique
[33] = tested on: Staphylococcus aureus; test: Antibacterial activity against Staphylococcus aureus ATCC 25923 assessed as zone of inhibition at 400 ug/disc after 18 hrs by disc diffusion method; details: ATCC 25923, 18 h, read-out: DIZ
[34] = tested on: Staphylococcus aureus; test: Antibacterial activity against hospital-acquired methicillin-resistant Staphylococcus aureus 393/10 after 18 hrs by twofold serial agar dilution technique; details: 393/10, 18 h
[35] = tested on: Pseudomonas aeruginosa; test: Antibacterial activity against Pseudomonas aeruginosa NCTC 6749 after 18 hrs by twofold serial agar dilution technique
[36] = tested on: Escherichia coli; test: Antibacterial activity against Escherichia coli ATCC 10538 after 18 hrs by twofold serial agar dilution technique
[37] = tested on: Staphylococcus aureus; test: Antibacterial activity against hospital-acquired methicillin-sensitive Staphylococcus aureus 442/11 after 18 hrs by twofold serial agar dilution technique; details: 442/11, 18 h
[38] = tested on: Staphylococcus aureus; test: Antibacterial activity against hospital-acquired methicillin-sensitive Staphylococcus aureus 448/11 after 18 hrs by twofold serial agar dilution technique; details: 448/11, 18 h
[39] = tested on: Staphylococcus aureus; test: Antibacterial activity against hospital-acquired methicillin-sensitive Staphylococcus aureus 449/11 after 18 hrs by twofold serial agar dilution technique; details: 449/11, 18 h
[40] = tested on: Staphylococcus aureus; test: Antibacterial activity against Staphylococcus aureus ATCC 29213 assessed as zone of inhibition at 400 ug/disc after 18 hrs by disc diffusion method; details: ATCC 29213, 18 h, read-out: DIZ
[41] = tested on: Staphylococcus aureus; test: Antibacterial activity against hospital-acquired methicillin-resistant Staphylococcus aureus 482/11 after 18 hrs by twofold serial agar dilution technique; details: 482/11, 18 h
[42] = tested on: Pseudomonas aeruginosa; test: Antibacterial activity against Pseudomonas aeruginosa ATCC 15442 after 18 hrs by twofold serial agar dilution technique
[43] = tested on: Candida albicans; test: Antifungal activity against Candida albicans ATCC 90028 after 24 hrs by twofold serial agar dilution technique

CC[C@@H](C(=O)[C@@H](C)[C@@H](O)[C@H](C)[C@@H]1O[C@@H]([C@@H](CC)C(=O)Nc2ccccc2)CC[C@@H]1C)[C@H]1O[C@]2(C=C[C@@H](O)[C@]3(CC[C@@](C)([C@H]4CC[C@](O)(CC)[C@H](C)O4)O3)O2)[C@H](C)C[C@@H]1C
22 mm: zone of inhibition at 400 µg/disc [20]
4 µg/mL: MIC [7] | MIC [11] | MIC [12] | MIC [16] | MIC [19] | MIC [21] | MIC [27] | MIC [28] | MIC [31] | MIC [34] | MIC [41]
2 µg/mL: MIC [2] | MIC [4] | MIC [5] | MIC [8] | MIC [9] | MIC [10] | MIC [13] | MIC [14] | MIC [15] | MIC [18] | MIC [22] | MIC [24] | MIC [37] | MIC [38] | MIC [39]
20 mm: zone of inhibition at 400 µg/disc [3] | zone of inhibition at 400 µg/disc [29]
18 mm: zone of inhibition at 400 µg/disc [33]
19 mm: zone of inhibition at 400 µg/disc [25]
21 mm: zone of inhibition at 400 µg/disc [40]
inactive: Activity [1] | Activity [6] | Activity [17] | Activity [23] | Activity [26] | Activity [30] | Activity [32] | Activity [35] | Activity [36] | Activity [42] | Activity [43]

CC[C@@H](C(=O)[C@@H](C)[C@@H](O)[C@H](C)[C@@H]1O[C@@H]([C@@H](CC)C(=O)NCCCN2CCCCC2)CC[C@@H]1C)[C@H]1O[C@]2(C=C[C@@H](O)[C@]3(CC[C@@](C)([C@H]4CC[C@](O)(CC)[C@H](C)O4)O3)O2)[C@H](C)C[C@@H]1C
64 µg/mL: MIC [7] | MIC [9] | MIC [11] | MIC [12] | MIC [16] | MIC [21] | MIC [22] | MIC [28] | MIC [34] | MIC [41]
128 µg/mL: MIC [2] | MIC [4] | MIC [10] | MIC [15] | MIC [18]
13 mm: zone of inhibition at 400 µg/disc [29]
11 mm: zone of inhibition at 400 µg/disc [3] | zone of inhibition at 400 µg/disc [20] | zone of inhibition at 400 µg/disc [33] | zone of inhibition at 400 µg/disc [40]
256 µg/mL: MIC [27]
inactive: Activity [1] | Activity [6] | Activity [17] | Activity [23] | Activity [26] | Activity [30] | Activity [32] | Activity [35] | Activity [36] | Activity [42] | Activity [43]
12 mm: zone of inhibition at 400 µg/disc [25]
32 µg/mL: MIC [5] | MIC [8] | MIC [13] | MIC [14] | MIC [19] | MIC [24] | MIC [31] | MIC [37] | MIC [38] | MIC [39]
